From patent EP2951180B1, “2,6,7,8 SUBSTITUTED PURINES AS HDM2 INHIBITORS” (Merck Sharp & Dohme Corp., priority 2013, dated 2014)

Molecular target: T1, HDM2 (Homo sapiens, UniProt Q00987)
T1 construct: Thioredoxin (N); made in house; host or cells: E. coli strain BL21(DE3)Rosetta
Assay: FRET assay (HDM2 inhibition; method not described in this part)
Assay type: binding

T1 sequence (Q00987 17-125): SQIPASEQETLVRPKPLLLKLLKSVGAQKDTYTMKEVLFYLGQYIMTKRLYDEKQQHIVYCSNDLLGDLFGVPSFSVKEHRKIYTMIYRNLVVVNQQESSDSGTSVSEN

Row | Structure (SMILES) | IC50 (Table 1) [nM] | other results
1 | C[C@@H](Nc1nc(C(=O)O)nc2nc(-c3ccc(C4OCCO4)cn3)n(Cc3ccc(C(F)(F)F)cc3)c12)C1CCC1 [Example 1.65, 6-{[(1R)-1-cyclobutylethyl]amino}-8-[5-(1,3-dioxolan-2-yl)pyridin-2-yl]-7-[4-(trifluoromethyl)benzyl]-7H-purine-2-carboxylic acid] | 62.2 | 
2 | C[C@@H](Nc1nc(C(=O)O)nc2nc(-c3ncccn3)n(Cc3ccc(C(F)(F)F)cc3)c12)C1CCC1 [Example 3.4, 6-{[(1R)-1-cyclobutylethyl]amino}-8-pyrimidin-2-yl-7-[4-(trifluoromethyl)benzyl] -7H-purine-2-carboxylic acid] |  | IC50 (Table 3): 69.8 nM
3 | Cc1ccc(OCCCO)c(-c2nc3nc(C(=O)O)nc(N[C@H](C)C4CC4)c3n2Cc2ccc(Cl)cc2)c1 [Example 4.20, (R)-7-(4-chlorobenzyl)-6-((1-cyclopropylethyl)amino)-8-(2-(3-hydroxypropoxy)-5-methylphenyl)-7H-purine-2-carboxylic acid] |  | IC50 (Table 4): 112 nM
4 | Cc1ccc(Cl)c(-c2nc3nc(C(=O)O)nc(N[C@H](C)C4CCC4)c3n2Cc2ccc(C(F)(F)F)cc2)c1 [Example 1.120, 8-(2-chloro-5-methylphenyl)-6-{[(1R)-1-cyclobutylethyl]amino}-7-[4-(trifluoromethyl)benzyl] - 7H-purine-2-carboxylic acid] | 10.4 | 
5 | CCOc1cccc(-c2nc3nc(C(=O)O)nc(N[C@H](C)C4CCC4)c3n2Cc2ccc(C(F)(F)F)cc2)c1 [Example 2.17, 6-{[(1R)-1-cyclobutylethyl]amino}-8-(3-ethoxyphenyl)-7-[4-(trifluoromethyl)benzyl] -7H-purine-2-carboxylic acid] |  | IC50 (Table 2): 40.2 nM
6 | COc1c(C)cc(-c2nc3nc(C(=O)O)nc(N[C@H](C)C4CCC4)c3n2Cc2ccc(C(F)(F)F)cc2)cc1C [Example 1.134, 6-{[(1R)-1-cyclobutylethyl]amino}-8-(4-methoxy-3,5-dimethylphenyl)-7-[4-(trifluoromethyl)benzyl]-7H-purine-2-carboxylic acid] | 56.2 | 
7 | C[C@@H](Nc1nc(C(=O)O)nc2nc(-c3cc4ccccc4cn3)n(Cc3ccc(C(F)(F)F)cc3)c12)C1CCC1 [Example 1.62, 6-{[(1R)-1-cyclobutylethyl]amino}-8-isoquinolin-3-yl-7-[4-(trifluoromethyl)benzyl] - 7H-purine-2-carboxylic acid] | 45.8 | 
8 | C[C@@H](Nc1nc(C(=O)O)nc2nc(-c3cc(C(F)(F)F)ccc3F)n(Cc3ccc(C(F)(F)F)cc3)c12)C1CCC1 [Example 1.38, 6-{[(1R)-1-cyclobutylethyl]amino}-8-[2-fluoro-5-(trifluoromethyl)phenyl] - 7-[4-(trifluoromethyl)benzyl]-7H-purine-2-carboxylic acid] | 27.5 | 
9 | C[C@@H](Nc1nc(C(=O)O)nc2nc(-c3cc(C(O)c4ccccc4)ccn3)n(Cc3ccc(C(F)(F)F)cc3)c12)C1CCC1 (stereo partly drawn) [Example 1.8, 6-(((R)-1-cyclobutylethyl)amino)-8-(4-(hydroxy(phenyl)methyl)pyridin-2-yl)-7-(4-(trifluoromethyl)benzyl)-7H-purine-2-carboxylic acid] | 20.1 | 
10 | CCc1ccc(F)c(-c2nc3nc(C(=O)O)nc(N[C@H](C)C4CCC4)c3n2Cc2ccc(C(F)(F)F)cc2)c1 [Example 1.40, 6-{[(1R)-1-cyclobutylethyl]amino}-8-(5-ethyl-2-fluorophenyl)-7-[4-(trifluoromethyl)benzyl]-7H-purine-2-carboxylic acid] | 33.8 | 
11 | COc1cccc(-c2nc3nc(C(=O)O)nc(N[C@H](C)C4CCC4)c3n2Cc2ccc(C(F)(F)F)cc2)c1 [Example 2.1, (R)-6-((1-cyclobutylethyl)amino)-8-(3-methoxyphenyl)-7-(4-(trifluoromethyl)benzyl)-7H-purine-2-carboxylic acid] |  | IC50 (Table 2): 37.5 nM
12 | C[C@@H](Nc1nc(C(=O)O)nc2nc(-c3cc(C4CCCC4)ccn3)n(Cc3ccc(C(F)(F)F)cc3)c12)C1CCC1 [Example 1.55, 6-{[(1R)-1-cyclobutylethyl]amino}-8-(4-cyclopentylpyridin-2-yl)-7-[4-(trifluoromethyl)benzyl]-7H-purine-2-carboxylic acid] | 4.77 | 
13 | COCCOc1ccc(C)cc1-c1nc2nc(C(=O)O)nc(N[C@H](C)C3CCC3)c2n1Cc1ccc(Cl)cc1 [Example 4.8, (R)-7-(4-chlorobenzyl)-6-((1-cyclobutylethyl)amino)-8-(2-(2-methoxyethoxy)-5-methylphenyl)-7H-purine-2-carboxylic acid] |  | IC50 (Table 4): 55 nM
14 | C[C@@H](Nc1nc(C(=O)O)nc2nc(-c3ccc4c(c3)CCO4)n(Cc3ccc(C(F)(F)F)cc3)c12)C1CCC1 [Example 1.121, 6-{[(1R)-1-cyclobutylethyl]amino}-8-(2,3-dihydro-1-benzofuran-5-yl)-7-[4-(trifluoromethyl)benzyl]-7H-purine-2-carboxylic acid] | 7.81 | 
15 | C[C@@H](Nc1nc(C(=O)O)nc2nc(-c3cc(C4CCCCC4)ccn3)n(Cc3ccc(C(F)(F)F)cc3)c12)C1CCC1 [Example 1.56, 6-{[(1R)-1-cyclobutylethyl]amino}-8-(4-cyclohexylpyridin-2-yl)-7-[4-(trifluoromethyl)benzyl]-7H-purine-2-carboxylic acid] | 6.99 | 
16 | CCOc1cc(C(F)(F)F)ccc1Cn1c(-c2cccc(C)c2)nc2nc(C(=O)O)nc(N[C@H](C)C3CCC3)c21 [Example 5.18, 6-{[(1R)-1-cyclobutylethyl]amino}-7-[2-ethoxy-4-(trifluoromethyl)benzyl]-8-(3-methylphenyl)-7H-purine-2-carboxylic acid] |  | IC50 (Table 5): 207 nM
17 | CC(C)c1ccnc(-c2nc3nc(C(=O)O)nc(N[C@H](C)C4CCC4)c3n2Cc2ccc(OC(F)(F)F)c(F)c2)c1 [Example 1.71, 6-{[(1R)-1-cyclobutylethyl]amino}-7-[3-fluoro-4-(trifluoromethoxy)benzyl]-8-[4-(1-methylethyl)pyridin-2-yl]-7H-purine-2-carboxylic acid] | 9.51 | 
18 | C[C@@H](Nc1nc(C(=O)O)nc2nc(-c3ccc(OC(F)F)cc3)n(Cc3ccc(C(F)(F)F)cc3)c12)C1CCC1 [Example 1.100, 6-{[(1R)-1-cyclobutylethyl]amino}-8-[4-(difluoromethoxy)phenyl]-7-[4-(trifluoromethyl)benzyl]-7H-purine-2-carboxylic acid] | 51.8 | 
19 | C[C@@H](Nc1nc(C(=O)O)nc2nc(-c3ccccc3C(N)=O)n(Cc3ccc(C(F)(F)F)cc3)c12)C1CC1 [Example 2.78, 8-(2-carbamoylphenyl)-6-{[(1R)-1-cyclopropylethyl]amino}-7-[4-(trifluoromethyl)benzyl]-7H-purine-2-carboxylic acid] |  | IC50 (Table 2): 219 nM
20 | C[C@@H](Nc1nc(C(=O)O)nc2nc(-c3ccc(OC(F)F)cn3)n(Cc3ccc(C(F)(F)F)cc3)c12)C1CCC1 [Example 1.66, 6-{[(1R)-1-cyclobutylethyl]amino}-8-[5-(difluoromethoxy)pyridin-2-yl]-7-[4-(trifluoromethyl)benzyl]-7H-purine-2-carboxylic acid] | 58.4 | 
21 | C[C@@H](Nc1nc(C(=O)O)nc2nc(-c3cnn(C)c3)n(Cc3ccc(C(F)(F)F)cc3)c12)C1CCC1 [Example 2.83, 6-{[(1R)-1-cyclobutylethyl]amino} -8-(1-methyl-1H-pyrazol-4-yl)-7-[4-(trifluoromethyl)benzyl] - 7H-purine-2-carboxylic acid] |  | IC50 (Table 2): 189 nM
22 | Cc1c(-c2nc3nc(C(=O)O)nc(N[C@H](C)C4CCC4)c3n2Cc2ccc(C(F)(F)F)cc2)cnn1C [Example 1.95, 6-{[(1R)-1-cyclobutylethyl]amino}-8-(1,5-dimethyl-1H-pyrazol-4-yl)-7-[4-(trifluoromethyl)benzyl]-7H-purine-2-carboxylic acid] | 138 | 
23 | Cc1cccc(-c2nc3nc(C(=O)O)nc(N[C@H](C)C4CCC4)c3n2Cc2ccc(OC(F)(F)F)c(F)c2)c1 [Example 5.14, 6-{[(1R)-1-cyclobutylethyl]amino}-7-[3-fluoro-4-(trifluoromethoxy)benzyl]-8-(3-methylphenyl)-7H-purine-2-carboxylic acid] |  | IC50 (Table 5): 36.4 nM
24 | Cc1ccc(C)c(-c2nc3nc(C(=O)O)nc(N[C@H](C)C4CCC4)c3n2Cc2ccc(C(F)(F)F)cc2)n1 [Example 1.21, 6-{[(1R)-1-cyclobutylethyl]amino}-8-(3,6-dimethylpyridin-2-yl)-7-[4-(trifluoromethyl)benzyl]-7H-purine-2-carboxylic acid] | 27 | 
25 | Cc1cccc(-c2nc3nc(C(=O)O)nc(N[C@H](C)C4CCC4)c3n2Cc2ccc(C(F)(F)F)cc2)n1 [Example 1.19] | 42.5 | 
26 | CNS(=O)(=O)c1ccc(-c2nc3nc(C(=O)O)nc(N[C@H](C)C4CCC4)c3n2Cc2ccc(C(F)(F)F)cc2)cc1 [Example 2.41, 6-{[(1R)-1-cyclobutylethyl]amino}-8-[4-(methylsulfamoyl)phenyl]-7-[4-(trifluoromethyl)benzyl]-7H-purine-2-carboxylic acid] |  | IC50 (Table 2): 44 nM
27 | Cc1cccc(-c2nc3nc(C(=O)O)nc(N[C@H](C)C4CC4)c3n2Cc2ccc(C(F)(F)F)cc2)c1 [Example 2.8, 6-{[(1R)-1-cyclopropylethyl]amino}-8-(3-methylphenyl)-7-[4-(trifluoromethyl)benzyl]-7H-purine-2-carboxylic acid] |  | IC50 (Table 2): 28.4 nM
28 | C[C@@H](Nc1nc(C(=O)O)nc2nc(Cc3ccccc3)n(Cc3ccc(C(F)(F)F)cc3)c12)C1CCC1 [Example 2.3, (R)-8-benzyl-6-((1-cyclobutylethyl)amino)-7-(4-(trifluoromethyl)benzyl)-7H-purine-2-carboxylic acid] |  | IC50 (Table 2): 3.66 nM
29 | C[C@@H](Nc1nc(C(=O)O)nc2nc(-c3ncco3)n(Cc3ccc(C(F)(F)F)cc3)c12)C1CCC1 [Example 3.5, 6-{[(1R)-1-cyclobutylethyl]amino}-8-(1,3-oxazol-2-yl)-7-[4-(trifluoromethyl)benzyl] -7H-purine-2-carboxylic acid] |  | IC50 (Table 3): 30 nM
30 | Cc1cccc(-c2nc3nc(C(=O)O)nc(N[C@H](C)C4CC4)c3n2Cc2ccc(C(F)(F)F)cc2)c1F [Example 2.65, 6-{[(1R)-1-cyclopropylethyl]amino}-8-(2-fluoro-3-methylphenyl)-7-[4-(trifluoromethyl)benzyl]-7H-purine-2-carboxylic acid] |  | IC50 (Table 2): 182 nM
